Experimental findings from US11160875B2, “Therapeutic nanofiber hydrogels for local treatment of brain-related diseases” (THE JOHNS HOPKINS UNIVERSITY, priority 2015, dated 2021) are described below.

Non-standard residues stand in square brackets, D forms with d. Residues, ends and D or L forms follow the SMILES beside them. No end group written: not given here. ξ: configuration not given here. *: point of attachment. Paclitaxel(2'-OCO(CH2)3S) = CC(=O)O[C@H]1C(=O)[C@@]2(C)[C@H]([C@H](OC(=O)c3ccccc3)[C@]3(O)C[C@H](OC(=O)[C@H](OC(=O)CCCS*)[C@@H](NC(=O)c4ccccc4)c4ccccc4)C(C)=C1C3(C)C)[C@]1(OC(C)=O)CO[C@@H]1C[C@@H]2O; Palmitoyl = CCCCCCCCCCCCCCCC(=O)*; ξV = CC(C)C(N)C(=O)O

Data set [1] concerns implanted tumors. Put plainly: In vivo brain tumor resection model.
Description: A) A cranial window (5 mm) was made at the same location of tumor implantation, and the tumor was resected with microscissors. A droplet of CPT nanofiber solution was placed in the resected area, forming hydrogels upon delivery. A methacrylate membrane was used to cover the skull defect.
A droplet of CPT-HKD nanofiber solution was placed in the resected area, forming hydrogels upon delivery. A methacrylate membrane was used to cover the skull defect.
Using the in vivo brain tumor resection model described above, mice with implanted tumors were treated with resection of the tumor alone or resection and addition of CPT-HKD hydrogel and the tumor site was subjected to BLI analysis at 1 and 2 weeks post-resection.
Using the in vivo brain tumor resection model described above, mice with implanted tumors were treated with resection of the tumor alone or resection and addition of CPT-HKD hydrogel for 1 month. After the test period, mouse brains were removed and sectioned in 10 μm thick sections and stained using H&E methods. Tumor area was determined by stereological analysis of consecutive 10 μm thick sections. p value was calculated by Mann-Whitney U (p=0.037).
Data set [2] in a line: Cumulative release of drug from CPT-HKD hydrogel. Type of data set: physicochemical.
Protocol: (§5) (C) Cumulative release of drug from the hydrogel formed by CPT-HKD (1.2 wt %) over one month. […] (D) Cell viability of primary glioma cells derived from three patients treated by CPT-HKD of varying concentrations.
(§6) CPT-HKD was incubated with primary glioma cells derived from three patients to determine cytotoxicity (FIG. 18D).
Data set [3] relates to primary glioma cells derived from three patients. The conditions noted are these: varying concentrations.
Protocol: as §5, §6
Data set [4] is described as follows: Hydrogel formation of CPT-HKD nanofibers in DPBS. The format is physicochemical.
Protocol: as §5, §6
Data set [5] in a line: Paclitaxel release study in PBS buffer with or without GSH. Type of data set: physicochemical. Particulars: 37° C., 50 μM, presence or absence of 10 mM GSH. As for the experimental part:
FIGS. 15A-15D illustrate fluorescence measurements to determine the CMC value of PTX-buSS-FFFRGDR (SEQ ID NO: 1) (A) and PTX-buSS-VVVRGDR (SEQ ID NO: 2) (B) based on Nile Red encapsulation within the assembled nanostructures. Representative CD spectra (solid lines) and UV-vis spectra (dash lines) of 200 μM PTX-buSS-FFFRGDR (SEQ ID NO: 1), 200 μM PTX-buSS-VVVRGDR (SEQ ID NO: 2) and 200 μM. C16-FFFRGDR (SEQ ID NO: 1) (C). Paclitaxel release study of PTX-buSS-FFFRGDR (SEQ ID NO: 1) and PTX-buSS-VVVRGDR (SEQ ID NO: 2) in PBS buffer at 37° C. at 50 μM. Solutions were incubated in the presence or absence of 10 mM GSH. Data are given as mean±s.d. (n=3).
Since the release of the active compound is critical and tunable by altering nanofilaments morphologies, experiments to determine PTX release were carried out in PBS buffer at 37° C. in the presence or absence of 10 mM GSH (FIG. 15D).

The subject of data set [6] is 965 human primary brain tumor cells. The data set can be described thus: Cytotoxicity dose-response, SRB assay, 965. The format is cell-based. Particulars: 965 primary cells, 72 h incubation per FIG. 16 legend. As for the experimental part:
(§1) FIGS. 16A-16B depict the cytotoxicity evaluation of PTX-buSS-FFFRGDR (SEQ ID NO: 1), PTX-buSS-VVVRGDR (SEQ ID NO: 2), and C16-FFFRGDR (SEQ ID NO: 1) against U87 human glioblastoma cells (A) and 965 human primary brain tumor cells (B). Cells were incubated with the PTX or conjugates for 48 h (U87) or 72 h (965) and cell viability was determined by SRB assay. Data are given as mean±s.d. (n=3).
(§2) U87 human glioblastoma cells were provided by Prof. Denis Wirtz's lab (Department of Chemical and Biomolecular Engineering, Johns Hopkins University). Primary human brain cancer cell line 965 was provided by Prof. Alfredo Quinones-Hinojosa of the Johns Hopkins Medical School. All cell lines were cultured according to providers' protocols. U87 human glioblastoma cells were grown in DMEM with 10% FBS and 1% antibiotics. Primary human brain cancer cell line 965 was grown in DEME/F12 with 2% Neuroplex, 1% antibiotics, 20 ng/mL hEGF and 20 ng/mL hFGF.
(§3) The cytotoxicity assays of PTX-FFFRGDR (SEQ ID NO: 1), PTX-VVVRGDR (SEQ ID NO: 2), C16-FFFRGDR (SEQ ID NO: 1) were determined using a dose-response study. A 96-well plate was seeded with cell sat a density of 5×10^3 cells/well and incubated at 37° C. for 24 h. The cells were then treated with varying concentrations of paclitaxel or conjugate in cell medium and incubated for a further 48 h (U87) or 72 h (primary cell lines). Cell viability was determined by sulforhodamine-B (SRB, Sigma Aldrich) assay according to the manufacturer's protocol. The data was fitted using the Hill equation function within the Igor Pro program and used to obtain the IC50 value.
(§4) The in vitro cytotoxicity of PTX-buSS-FFFRGDR (SEQ ID NO: 1) was assessed an compared to that of free PTX, PTX-buSS-VVVRGDR (SEQ ID NO: 2) and C16-FFFRGDR (SEQ ID NO: 1) against two brain tumor cell lines, including U87 human glioblastoma cell line and 965 primary human brain tumor cell line (FIG. 16). Cells were incubated for 48 h with varying drug concentrations and cell viability was determined using sulforhodamine B (SRB) assay. […]
On the technique in general: The SRB assay estimates cell density from bound dye.

For data set [7], the system named is U87 human glioblastoma cells. The data set can be described thus: Cytotoxicity dose-response, SRB assay, U87. The format is cell-based. Particulars: U87, 48 h incubation. As for the experimental part:
as §1, §2, §3, §4

For data set [8], the system named is U87 human glioblastoma cells. Put plainly: Hydrogel drug release and cytotoxicity, live/dead cell staining. Particulars: U87, 24 h incubation with hydrogel, near-gel region 1 and peripheral region 2. The format is cell-based. As for the experimental part: FIGS. 17A-17F show the in vitro drug release and cytotoxicity study of PTX-buSS-FFFRGDR (SEQ ID NO: 1), PTX-buSS-VVVRGDR (SEQ ID NO: 2), and C16-FFFRGDR (SEQ ID NO: 1) hydrogels against U87 human glioblastoma cells. Live/dead assay cell images after 24 h of incubation with blank culture media (A and D), PTX-buSS-FFFRGDR (SEQ ID NO: 1) (B and E), or C16-FFFRGDR (SEQ ID NO: 1) (C and F).
The in vitro drug release and cytotoxicity of PTX-buSS-FFFRGDR (SEQ ID NO: 1) was assessed and compared to that of C16-FFFRGDR (SEQ ID NO: 1) blank hydrogel against U87 human glioblastoma cells (FIG. 17). Cells were incubated for 24 h with PTX-loaded and PTX-free hydro-gels and cell viability was determined using live/dead cell staining method. Two sections along gradient decaying radius were taken to compare cell viability after treatment with different hydrogels.

For the molecule “CPT-HKD (GVVQQHKD; also: camptothecin conjugated via buSS linker, site not given here)”, the “BLI signal intensity versus resection only group” value in data set [1] (1 and 2 weeks post-resection, p=0.0076) is recorded as “significant lower intensity”. Moreover, the “difference in survival versus resection only group” value in data set [1] (Kaplan-Meier analysis, p=0.01) is “extension of one-week”. For the same molecule, in data set [1] (after 1 month of treatment, stereological analysis of 10 μm sections, p=0.037), the “tumor area versus resection only group” value is “Reduces Brain Tumor Area”. Besides, the “survival (Kaplan-Meier)” value in data set [1] (resection plus hydrogel, resection only 35 days, p=0.01) amounted to 41 days. Moreover, in data set [2] (after one month), the hydrogel shape retention entry was “retained its shape after one month”. Moreover, in data set [2] (hydrogel 1.2 wt %, over one month), the “cumulative release of drug from the hydrogel” value was “about 15 % of total bound drug”. The “cytotoxicity (cell viability)” value in data set [3] was “dose dependent cytotoxicity shown in all three cell lines”. For the same molecule, the “concentration at which nanofibers form a hydrogel” value in data set [4] is given as “higher than 0.4 wt %”.
On to `CC(=O)N[C@@H](CSSCCCC(=O)O[C@@H](C(=O)O[C@H]1C[C@@]2(O)[C@@H](OC(=O)c3ccccc3)[C@@H]3[C@]4(OC(C)=O)CO[C@@H]4C[C@H](O)[C@@]3(C)C(=O)[C@H](OC(C)=O)C(=C1C)C2(C)C)[C@@H](NC(=O)c1ccccc1)c1ccccc1)C(=O)NCC(=O)N[C@H](C(=O)NC(C(=O)N[C@H](C(=O)N[C@@H](CCCNC(=N)N)C(=O)NCC(=O)N[C@@H](CC(=O)O)C(=O)N[C@@H](CCCNC(=N)N)C(=O)O)C(C)C)C(C)C)C(C)C` (stereo partly shown) [PTX-buSS-VVVRGDR] (Ac-C(Paclitaxel(2'-OCO(CH2)3S))GV[ξV]VRGDR-OH), for which the “PTX release rate, with GSH versus without” value in data set [5] was “faster release rates under GSH conditions”. Further, the “in vitro cytotoxicity (cell viability)” value in data set [6] and in data set [7] was “near-identical toxicity to free PTX” throughout.
Turning to `CCCCCCCCCCCCCCCC(=O)N[C@@H](Cc1ccccc1)C(=O)N[C@@H](Cc1ccccc1)C(=O)N[C@@H](Cc1ccccc1)C(=O)N[C@@H](CCCNC(=N)N)C(=O)NCC(=O)N[C@@H](CC(=O)O)C(=O)N[C@@H](CCCNC(=N)N)C(=O)O` [C16-FFFRGDR] (Palmitoyl-FFFRGDR-OH), the “cell viability by live/dead staining around the hydrogel” value in data set [8] is recorded as “non-toxicity against U87 cells in both regions”. Further, the “in vitro cytotoxicity (cell viability)” value in data set [6] and in data set [7] was “didn't show any significant toxicity” each time.
As for `CC(=O)N[C@@H](CSSCCCC(=O)O[C@@H](C(=O)O[C@H]1C[C@@]2(O)[C@@H](OC(=O)c3ccccc3)[C@@H]3[C@]4(OC(C)=O)CO[C@@H]4C[C@H](O)[C@@]3(C)C(=O)[C@H](OC(C)=O)C(=C1C)C2(C)C)[C@@H](NC(=O)c1ccccc1)c1ccccc1)C(=O)N[C@@H](Cc1ccccc1)C(=O)N[C@@H](Cc1ccccc1)C(=O)N[C@@H](Cc1ccccc1)C(=O)N[C@@H](CCCNC(=N)N)C(=O)NCC(=O)N[C@@H](CC(=O)O)C(=O)N[C@@H](CCCNC(=N)N)C(=O)O` [PTX-buSS-FFFRGDR] (Ac-C(Paclitaxel(2'-OCO(CH2)3S))FFFRGDR-OH), the “in vitro cytotoxicity (cell viability)” value in data set [6] and in data set [7] was “near-identical toxicity to free PTX” in each case.
